Assays:
AZD4320 = compound: CN(CC[C@H](CSC1=CC=CC=C1)NC2=C(C=C(C=C2)S(=O)(=O)NC(=O)C3=CC=C(C=C3)N4CCC(CC4)[C@H](C5=CC=CC=C5C6=CC=C(C=C6)Cl)O)S(=O)(=O)C(F)(F)F)CCO [AZD4320]; details: max 1 µM
Summary of the method: (§1)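 Cancer cell lines were plated in 1536-well plates in 7.5 μl of DMEM/F12 or RPMI with 10% FBS and kept 24 hours at 37°C and 5% CO2 before 72 hours of dosing, with final DMSO typically 0.2%. CellTiter-Glo 2.0 luminescence measured viability, scaled between blank-well and DMSO-well means. Dose responses were fitted to a two-parameter logistic curve with a non-linear mixed effects model. This fit gives the single-agent IC50.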

Doxorubicin = compound: COc1cccc2c1C(=O)c1c(O)c3c(c(O)c1C2=O)C[C@@](O)(C(=O)CO)C[C@@H]3O[C@H]1C[C@H](N)[C@H](O)[C@H](C)O1 [Doxorubicin]; details: max 1 µM
Summary of the method: as §1

Gefitinib = compound: COc1cc2ncnc(Nc3ccc(F)c(Cl)c3)c2cc1OCCCN1CCOCC1 [Gefitinib]; details: max 10 µM
Summary of the method: as §1

Venetoclax = compound: CC1(C)CCC(CN2CCN(c3ccc(C(=O)NS(=O)(=O)c4ccc(NCC5CCOCC5)c([N+](=O)[O-])c4)c(Oc4cnc5[nH]ccc5c4)c3)CC2)=C(c2ccc(Cl)cc2)C1 [Venetoclax]; details: max 1 µM
Summary of the method: as §1

Dasatinib = compound: CC1=C(C(=CC=C1)Cl)NC(=O)C2=CN=C(S2)NC3=CC(=NC(=N3)C)N4CCN(CC4)CCO [Dasatinib]; details: max 2 µM
Summary of the method: as §1

Palbociclib = compound: CC(=O)c1c(C)c2cnc(Nc3ccc(N4CCNCC4)cn3)nc2n(C2CCCC2)c1=O [Palbociclib]; details: max 10 µM
Summary of the method: as §1

AZD5363 = compound: C1CN(CCC1(C(=O)N[C@@H](CCO)C2=CC=C(C=C2)Cl)N)C3=NC=NC4=C3C=CN4 [AZD5363]; details: max 10 µM
Summary of the method: as §1

Olaparib = compound: O=C(c1cc(Cc2n[nH]c(=O)c3ccccc23)ccc1F)N1CCN(C(=O)C2CC2)CC1 [Olaparib]; details: max 10 µM
Summary of the method: as §1

Taselisib = compound: Cc1nc(-c2cn3c(n2)-c2ccc(-c4cnn(C(C)(C)C(N)=O)c4)cc2OCC3)n(C(C)C)n1 [Taselisib]; details: max 10 µM
Summary of the method: as §1

Paclitaxel = compound: CC(=O)O[C@H]1C(=O)[C@@]2(C)[C@H]([C@H](OC(=O)c3ccccc3)[C@]3(O)C[C@H](OC(=O)[C@H](O)[C@@H](NC(=O)c4ccccc4)c4ccccc4)C(C)=C1C3(C)C)[C@]1(OC(C)=O)CO[C@@H]1C[C@@H]2O [Paclitaxel]; details: max 3 µM
Summary of the method: as §1

AZD0156 = compound: CN(C)CCCOc1ccc(-c2ccc3ncc4c(c3c2)n(C2CCOCC2)c(=O)n4C)cn1 [AZD0156]; details: max 3 µM
Summary of the method: as §1

AZD5991 = compound: Cc1c2c(nn1C)CSCc1cc(n(C)n1)CSc1cc(c3ccccc3c1)OCCCc1c(C(=O)O)n(C)c3c-2c(Cl)ccc13 [AZD5991]; details: max 1 µM
Summary of the method: as §1

Lapatinib = compound: CS(=O)(=O)CCNCc1ccc(-c2ccc3ncnc(Nc4ccc(OCc5cccc(F)c5)c(Cl)c4)c3c2)o1 [Lapatinib]; details: max 10 µM
Summary of the method: as §1

AZD6738 = compound: C[C@@H]1COCCN1C2=NC(=NC(=C2)C3(CC3)[S@](=N)(=O)C)C4=C5C=CNC5=NC=C4 [AZD6738]; details: max 10 µM
Summary of the method: as §1

AZD5153 = compound: COc1nnc2ccc(N3CCC(c4ccc(OCCN5CCN(C)C(=O)[C@H]5C)cc4)CC3)nn12 [AZD5153]; details: max 1 µM
Summary of the method: as §1

Carboplatin = compound: C1CC(C1)(C(=O)[O-])C(=O)[O-].N.N.[Pt+2] [Carboplatin]; details: max 10 µM
Summary of the method: as §1

MK-2206 = compound: NC1(c2ccc(-c3nc4ccn5c(=O)[nH]nc5c4cc3-c3ccccc3)cc2)CCC1 [MK-2206]; details: max 10 µM
Summary of the method: as §1

Etoposide = compound: COc1cc([C@@H]2c3cc4c(cc3[C@@H](O[C@@H]3O[C@@H]5CO[C@@H](C)O[C@H]5[C@H](O)[C@H]3O)[C@H]3COC(=O)[C@H]23)OCO4)cc(OC)c1O [Etoposide]; details: max 10 µM
Summary of the method: as §1

Trametinib = compound: CC(=O)Nc1cccc(-n2c(=O)n(C3CC3)c(=O)c3c(Nc4ccc(I)cc4F)n(C)c(=O)c(C)c32)c1 [Trametinib]; details: max 1 µM
Summary of the method: as §1

[1] = compound: O=C(Nc1ccc2[nH]nc(-c3ccncc3)c2c1)[C@@H]1CCN(CC(=O)N2CCN(c3ccc(-c4ncccn4)cc3)CC2)C1; details: max 5 µM
Summary of the method: as §1

Crizotinib = compound: C[C@@H](Oc1cc(-c2cnn(C3CCNCC3)c2)cnc1N)c1c(Cl)ccc(F)c1Cl [Crizotinib]; details: max 10 µM
Summary of the method: as §1

Savolitinib = compound: C[C@@H](c1ccc2nccn2c1)n1nnc2ncc(-c3cnn(C)c3)nc21 [Savolitinib]; details: max 1 µM
Summary of the method: as §1

AZD7648 = compound: Cc1cc2ncnn2cc1Nc1ncc2c(n1)n(C1CCOCC1)c(=O)n2C [AZD7648]; details: max 10 µM
Summary of the method: as §1

AZD8186 = compound: C[C@@H](Nc1cc(F)cc(F)c1)c1cc(C(=O)N(C)C)cc2c(=O)cc(N3CCOCC3)oc12 [AZD8186]; details: max 10 µM
Summary of the method: as §1

Prexasertib = compound: COc1cccc(OCCCN)c1-c1cc(Nc2cnc(C#N)cn2)n[nH]1 [Prexasertib]; details: max 1 µM
Summary of the method: as §1

Alisertib = compound: COc1cc(Nc2ncc3c(n2)-c2ccc(Cl)cc2C(c2c(F)cccc2OC)=NC3)ccc1C(=O)O [Alisertib]; details: max 10 µM
Summary of the method: as §1

5-Fluorouracil = compound: O=c1[nH]cc(F)c(=O)[nH]1 [5-Fluorouracil]; details: max 20 µM
Summary of the method: as §1

AZD1390 = compound: CC(C)n1c(=O)n(C)c2cnc3cc(F)c(-c4ccc(OCCCN5CCCCC5)nc4)cc3c21 [AZD1390]; details: max 0.3 µM
Summary of the method: as §1

AZD1775 = compound: C=CCn1c(=O)c2cnc(Nc3ccc(N4CCN(C)CC4)cc3)nc2n1-c1cccc(C(C)(C)O)n1 [AZD1775]; details: max 3 µM
Summary of the method: as §1

SN-38 = compound: CCc1c2c(nc3ccc(O)cc13)-c1cc3c(c(=O)n1C2)COC(=O)[C@]3(O)CC [SN-38]; details: max 0.3 µM
Summary of the method: as §1

AZD2811 = compound: CCN(CCO)CCCOc1ccc2c(Nc3cc(CC(=O)Nc4cccc(F)c4)[nH]n3)ncnc2c1 [AZD2811]; details: max 1 µM
Summary of the method: as §1

SRA737 = compound: N#Cc1cnc(Nc2cc(NC[C@H]3CNCCO3)c(C(F)(F)F)cn2)cn1 [SRA737]; details: max 10 µM
Summary of the method: as §1

Gemcitabine = compound: Nc1ccn([C@@H]2O[C@H](CO)[C@@H](O)C2(F)F)c(=O)n1 [Gemcitabine]; details: max 0.3 µM
Summary of the method: as §1

Selumetinib = compound: Cn1cnc2c(F)c(Nc3ccc(Br)cc3Cl)c(C(=O)NOCCO)cc21 [Selumetinib]; details: max 10 µM
Summary of the method: as §1

SG3199 = compound: CC1=CN2[C@@H](C1)C=NC3=CC(=C(C=C3C2=O)OC)OCCCCCOC4=C(C=C5C(=C4)N=C[C@@H]6CC(=CN6C5=O)C)OC [SG3199]; details: max 0.001 µM
Summary of the method: as §1

| Cell Line | IC50, cell viability 72 h (AZD4320) [nM] | IC50, cell viability 72 h (Doxorubicin) [nM] | IC50, cell viability 72 h (Gefitinib) [nM] | IC50, cell viability 72 h (Venetoclax) [nM] | IC50, cell viability 72 h (Dasatinib) [nM] | IC50, cell viability 72 h (Palbociclib) [nM] | IC50, cell viability 72 h (AZD5363) [nM] | IC50, cell viability 72 h (Olaparib) [nM] | IC50, cell viability 72 h (Taselisib) [nM] | IC50, cell viability 72 h (Paclitaxel) [nM] | IC50, cell viability 72 h (AZD0156) [nM] | IC50, cell viability 72 h (AZD5991) [nM] | IC50, cell viability 72 h (Lapatinib) [nM] | IC50, cell viability 72 h (AZD6738) [nM] | IC50, cell viability 72 h (AZD5153) [nM] | IC50, cell viability 72 h (Carboplatin) [nM] | IC50, cell viability 72 h (MK-2206) [nM] | IC50, cell viability 72 h (Etoposide) [nM] | IC50, cell viability 72 h (Trametinib) [nM] | IC50, cell viability 72 h [1] [nM] | IC50, cell viability 72 h (Crizotinib) [nM] | IC50, cell viability 72 h (Savolitinib) [nM] | IC50, cell viability 72 h (AZD7648) [nM] | IC50, cell viability 72 h (AZD8186) [nM] | IC50, cell viability 72 h (Prexasertib) [nM] | IC50, cell viability 72 h (Alisertib) [nM] | IC50, cell viability 72 h (5-Fluorouracil) [nM] | IC50, cell viability 72 h (AZD1390) [nM] | IC50, cell viability 72 h (AZD1775) [nM] | IC50, cell viability 72 h (SN-38) [nM] | IC50, cell viability 72 h (AZD2811) [nM] | IC50, cell viability 72 h (SRA737) [nM] | IC50, cell viability 72 h (Gemcitabine) [nM] | IC50, cell viability 72 h (Selumetinib) [nM] | IC50, cell viability 72 h (SG3199) [nM] |
| --- | --- | --- | --- | --- | --- | --- | --- | --- | --- | --- | --- | --- | --- | --- | --- | --- | --- | --- | --- | --- | --- | --- | --- | --- | --- | --- | --- | --- | --- | --- | --- | --- | --- | --- | --- |
| SW1783 (Low Grade Glioma) | > 1000 | > 1000 | > 10000 | > 1000 | > 2000 | > 10000 | > 10000 | > 10000 | 5980 | 407 | > 3000 | > 1000 | > 10000 | > 10000 | > 1000 | > 10000 | > 10000 | > 10000 | > 1000 | > 5000 | > 10000 | > 1000 | > 10000 | 8000 | > 1000 | 8540 | > 20000 | > 300 | 1410 | 45.2 | > 1000 | > 10000 | 121 | > 10000 | > 1 |
| SK-N-FI (Neuroblastoma) | > 1000 | > 1000 | > 10000 | > 1000 | > 2000 | > 10000 | > 10000 | > 10000 | 955 | 2250 | > 3000 | > 1000 | > 10000 | 8510 | 447 | > 10000 | > 10000 | > 10000 | 117 | > 5000 | > 10000 | > 1000 | > 10000 | > 10000 | 60.3 | 2480 | > 20000 | > 300 | 1600 | 157 | > 1000 | > 10000 | > 300 | 7750 | > 1 |
| MFH-ino (Other Solid Carcinomas) | > 1000 | > 1000 | > 10000 | > 1000 | > 2000 | > 10000 | > 10000 | > 10000 | > 10000 | 1270 | > 3000 | > 1000 | > 10000 | > 10000 | > 1000 | > 10000 | > 10000 | > 10000 | > 1000 | 3670 | > 10000 | > 1000 | > 10000 | > 10000 | > 1000 | > 10000 | > 20000 | > 300 | > 3000 | 39.8 | > 1000 | > 10000 | 71.7 | > 10000 | > 1 |
| MDA-MB-157 (Breast Carcinoma) | > 1000 | > 1000 | > 10000 | > 1000 | > 2000 | > 10000 | > 10000 | > 10000 | > 10000 | 132 | > 3000 | 457 | > 10000 | 926 | 398 | > 10000 | > 10000 | 8860 | > 1000 | > 5000 | > 10000 | > 1000 | > 10000 | > 10000 | 10 | > 10000 | 10600 | > 300 | 973 | 62.6 | > 1000 | 1230 | 213 | > 10000 | > 1 |

From the supplement of paper PMC11061612
